pIC50: −log10 of the molar value.
Key:
human PASK = biological target: T1, human PASK (Homo sapiens, UniProt Q96RG2); assay: ADP-Glo kinase assay; format: biochemical; settings: ADPGlo PASK kinase assay, 25 μM ATP, ZIPtide 25 μM
T1 construct: purchased ThermoFisher Scientific PR7013A
Experimental: The ADP-Glo™ kinase assay is a luminescent technology assay which measures the ADP formed from a kinase reaction. In this specific study, the kinase reactions consisted of the phosphorylation of the ZIPtide peptide substrate by human recombinant PASK. In a second step the kinase reaction is terminated and all the remaining ATP is depleted. In a final step the ADP is converted into ATP and this newly synthesized ATP is measured by using a luciferase/luciferin reaction. The generated light is measured using an Envision plate reader, wherein the luminescent signal obtained positively correlates with the kinase activity.
The test compounds are prepared as a serial dilution of 10 point dose responses with 1/5 dilution steps in 100% DMSO starting from 2 mM highest concentration, diluted 1/20 in water and 1 μL is transferred to the assay plates (PerkinElmer Inc., Cat #6007290).
1% DMSO and 10 μM staurosporine final concentrations are used respectively as negative and positive controls.
2 μL enzyme-substrate mixture is added to the assay plates.
The reaction is started by adding 2 μL diluted ATP on the assay plates immediately after addition of the enzyme-substrate mixture to the compound. Plates are centrifuged for a few seconds at 1000 rpm and gently shaken for 2 min followed by an incubation at RT for 120 min.
The reactions are stopped and the unconsumed ATP is depleted by adding 5 μL ADP-Glo Reagent (Promega, Cat #V912B) to the reaction. The plates are centrifuged for a few seconds at 1000 rpm and incubated at RT for 40 min (ATP depletion).
The ADP is converted to ATP and luciferase and luciferin is introduced to detect ATP by adding 10 μL Kinase Detection Reagent (Promega, Cat #V913B+V914B) to the reaction. The plates are centrifuged for a few seconds at 1000 rpm and incubated at RT for 30 min (ADP detection).
Luminescence is measured on an Envision plate reader (PerkinElmer Inc.).
Raw data are generated following the read-out performed on the Envision plate reader, used to calculate percentage inhibition (PIN) values and plotted to generate dose response curves and derive the average half maximal inhibitory concentrations (IC50) reported in Table VIII.

[1] = test system: diabetic non human primates (NHPs) under a high-calorie diet (HCD); assay: Diabetic monkey model;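 further: male obese diabetic cynomolgus monkeys fed a high-fat, high-fructose diet, randomized into 4 groups, dosed with test compound for 8 weeks, then a 4-week washout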
Experimental: The aim of this assay is to determine the effect of a test compound on lipid metabolism and glucose handling in diabetic non human primates (NHPs) under a high-calorie diet (HCD) consisting of high-fat and high-fructose.
Male obese diabetic cynomolgus monkeys were selected based on their body weights, glucose, insulin levels, and blood lipid parameters. The inclusion criteria were the following: age ≤22 years; fasted plasma glucose between 120 and 300 mg/dL; triglycerides >125 mg/dL, and insulin >75 mIU/mL.
The animals are maintained at 20-23° C. and 40-70% humidity on a 12 h light/dark cycle (7 AM-7 PM). Water is provided ad libitum and the animals are fed twice daily with the high-calorie diet (HCD) enriched with seasonal fruits or vegetables.
After the baseline period, animals were randomized into 4 groups according to body weight, as well as their blood glucose and lipid parameters.
The following parameters were measured once per week during the 8 weeks of treatment and also during the 4 weeks of washout: • body weight • food consumption • blood chemistry (fasted blood glucose, plasma triglycerides, plasma total cholesterol, low density lipoproteins (LDL), and high density lipoproteins (HDL))
Oral glucose tolerance was measured in fasted animals before treatment initiation (baseline), at the end of the treatment period (week 8), and after 4 weeks of washout (week 12).

[2] = week 1, treatment, metformin 25 mg/kg b.i.d., Cpd 18 30 mg/kg q.d., p.o.
[3] = week 2, treatment, metformin 25 mg/kg b.i.d., Cpd 18 30 mg/kg q.d., p.o.
[4] = week 3, treatment, metformin 25 mg/kg b.i.d., Cpd 18 30 mg/kg q.d., p.o.
[5] = week 4, treatment, metformin 25 mg/kg b.i.d., Cpd 18 30 mg/kg q.d., p.o.
[6] = week 9, washout without treatment
[7] = week 10, washout without treatment
[8] = week 11, washout without treatment
[9] = week 12, washout without treatment

T1 sequence (Q96RG2 whole entry): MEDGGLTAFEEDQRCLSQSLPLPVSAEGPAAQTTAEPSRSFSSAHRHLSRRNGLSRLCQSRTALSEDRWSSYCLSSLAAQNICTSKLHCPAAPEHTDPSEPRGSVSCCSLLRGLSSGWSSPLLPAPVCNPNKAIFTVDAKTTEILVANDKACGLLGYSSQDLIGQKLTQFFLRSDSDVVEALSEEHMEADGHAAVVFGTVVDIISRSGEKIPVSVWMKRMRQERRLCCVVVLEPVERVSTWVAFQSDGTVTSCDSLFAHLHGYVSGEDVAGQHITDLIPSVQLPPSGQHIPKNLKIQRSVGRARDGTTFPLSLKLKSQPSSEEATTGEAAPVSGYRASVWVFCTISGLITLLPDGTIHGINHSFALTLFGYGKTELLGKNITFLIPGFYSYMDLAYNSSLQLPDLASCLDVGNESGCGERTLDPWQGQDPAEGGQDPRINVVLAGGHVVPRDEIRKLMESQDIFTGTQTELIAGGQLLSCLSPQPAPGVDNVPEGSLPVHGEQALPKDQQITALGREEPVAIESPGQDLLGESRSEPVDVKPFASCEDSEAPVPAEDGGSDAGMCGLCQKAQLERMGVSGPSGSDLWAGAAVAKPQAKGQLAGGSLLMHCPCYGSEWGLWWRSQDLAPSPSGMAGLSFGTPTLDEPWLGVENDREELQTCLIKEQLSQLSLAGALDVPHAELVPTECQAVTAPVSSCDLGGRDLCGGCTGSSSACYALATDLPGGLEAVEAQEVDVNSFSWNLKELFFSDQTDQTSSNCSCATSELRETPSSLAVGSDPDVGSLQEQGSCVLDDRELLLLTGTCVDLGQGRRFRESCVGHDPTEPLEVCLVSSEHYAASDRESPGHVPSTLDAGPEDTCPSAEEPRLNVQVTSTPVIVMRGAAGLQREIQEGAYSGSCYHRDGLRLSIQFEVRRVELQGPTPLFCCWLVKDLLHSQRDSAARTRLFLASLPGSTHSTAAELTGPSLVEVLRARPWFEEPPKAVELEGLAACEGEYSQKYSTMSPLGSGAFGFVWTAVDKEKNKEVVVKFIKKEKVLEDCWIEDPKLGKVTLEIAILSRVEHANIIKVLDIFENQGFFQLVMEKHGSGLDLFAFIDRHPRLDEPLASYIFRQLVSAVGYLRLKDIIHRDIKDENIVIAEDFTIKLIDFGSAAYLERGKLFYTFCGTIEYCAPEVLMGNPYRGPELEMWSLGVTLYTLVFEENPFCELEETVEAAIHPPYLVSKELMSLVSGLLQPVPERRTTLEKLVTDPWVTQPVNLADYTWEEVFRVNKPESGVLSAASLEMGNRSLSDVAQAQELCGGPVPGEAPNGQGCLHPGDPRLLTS

Row | Compound | pIC50 (human PASK) | also measured
1 | Cn1cc(-c2cnn3ccc(-c4cc(C(=O)O)co4)cc23)c(C(F)(F)F)n1 [Cpd 10, 5-[3-[1-methyl-3-(trifluoromethyl)pyrazol-4-yl]pyrazolo[1,5-a]pyridin-5-yl]furan-3-carboxylic acid] | 8.00 to 11.00 | –
2 | Cc1c(-c2cnn3ccc(-c4cc(C(=O)O)co4)cc23)cnn1C [Cpd 12, 5-[3-(1,5-dimethylpyrazol-4-yl)pyrazolo[1,5-a]pyridin-5-yl]furan-3-carboxylic acid] | 8.00 to 11.00 | –
3 | Cc1nn(C)c(C)c1-c1cnn2ccc(-c3cc(C(=O)OCOC(=O)C(C)(C)C)co3)cc12 [Cpd 13, 2,2-dimethylpropanoyloxymethyl 5-[3-(1,3,5-trimethylpyrazol-4-yl)pyrazolo[1,5-a]pyridin-5-yl]furan-3-carboxylate] | 6.30 to 7.00 | –
4 | Cc1noc(C)c1-c1cnn2ccc(-n3cc(C(=O)O)cn3)cc12 [Cpd 47, 1-[3-(3,5-dimethylisoxazol-4-yl)pyrazolo[1,5-a]pyridin-5-yl]pyrazole-4-carboxylic acid] | 7.00 to 8.00 | –
5 | Cc1nn(C(C)C)c(C)c1-c1cnn2ccc(-c3ccc(C(=O)O)o3)cc12 [Cpd 48, 5-[3-(1-isopropyl-3,5-dimethyl-pyrazol-4-yl)pyrazolo[1,5-a]pyridin-5-yl]furan-2-carboxylic acid] | 8.00 to 11.00 | –
6 | Cc1nn(C(F)F)c(C)c1-c1cnn2ccc(-c3ncc(C(=O)O)o3)cc12 [Cpd 49, 2-[3-[1-(difluoromethyl)-3,5-dimethyl-pyrazol-4-yl]pyrazolo[1,5-a]pyridin-5-yl]oxazole-5-carboxylic acid] | 8.00 to 11.00 | –
7 | Cc1nn(C(F)F)c(C)c1-c1cnn2ccc(-c3ccc(C(=O)O)o3)cc12 [Cpd 51, 5-[3-[1-(difluoromethyl)-3,5-dimethyl-pyrazol-4-yl]pyrazolo[1,5-a]pyridin-5-yl]furan-2-carboxylic acid] | 8.00 to 11.00 | –
8 | Cc1nn(C(C)C)c(C)c1-c1cnn2ccc(-n3cc(C(=O)O)cn3)cc12 [Cpd 52, 1-[3-(1-isopropyl-3,5-dimethyl-pyrazol-4-yl)pyrazolo[1,5-a]pyridin-5-yl]pyrazole-4-carboxylic acid] | 8.00 to 11.00 | –
9 | Cc1nn(CC(F)(F)F)c(C)c1-c1cnn2ccc(-c3cc(C(=O)O)c(C4=CCOCC4)o3)cc12 [Cpd 53, 2-(3,6-dihydro-2H-pyran-4-yl)-5-[3-[3,5-dimethyl-1-(2,2,2-trifluoroethyl)pyrazol-4-yl]pyrazolo[1,5-a]pyridin-5-yl]furan-3-carboxylic acid] | 8.00 to 11.00 | –
10 | Cc1nn(C(F)F)c(C)c1-c1cnn2ccc(-c3cc(C(=O)O)c(C4=CCOCC4)o3)cc12 [Cpd 54, 5-[3-[1-(difluoromethyl)-3,5-dimethyl-pyrazol-4-yl]pyrazolo[1,5-a]pyridin-5-yl]-2-(3,6-dihydro-2H-pyran-4-yl)furan-3-carboxylic acid] | 8.00 to 11.00 | –
11 | Cc1nn(CC(F)(F)F)c(C)c1-c1cnn2ccc(-c3cc(C(=O)O)c(C4CCOCC4)o3)cc12 [Cpd 55, 5-[3-[3,5-dimethyl-1-(2,2,2-trifluoroethyl)pyrazol-4-yl]pyrazolo[1,5-a]pyridin-5-yl]-2-tetrahydropyran-4-yl-furan-3-carboxylic acid] | 8.00 to 11.00 | –
12 | Cc1noc(C)c1-c1cnn2ccc(-c3nc(OC(C)C)c(C(=O)O)s3)cc12 [Cpd 56, 2-[3-(3,5-dimethylisoxazol-4-yl)pyrazolo[1,5-a]pyridin-5-yl]-4-isopropoxy-thiazole-5-carboxylic acid] | 8.00 to 11.00 | –
13 | Cc1c(-c2cnn3ccc(-c4nc(C(=O)O)co4)cc23)c(C(F)(F)F)nn1C [Cpd 57, 2-[3-[1,5-dimethyl-3-(trifluoromethyl)pyrazol-4-yl]pyrazolo[1,5-a]pyridin-5-yl]oxazole-4-carboxylic acid] | 8.00 to 11.00 | –
14 | Cc1noc(C)c1-c1cnn2ccc(-c3nc(OC4COC4)c(C(=O)O)s3)cc12 [Cpd 58, 2-[3-(3,5-dimethylisoxazol-4-yl)pyrazolo[1,5-a]pyridin-5-yl]-4-(oxetan-3-yloxy) thiazole-5-carboxylic acid] | 8.00 to 11.00 | –
15 | COCCOc1nc(-c2ccn3ncc(-c4c(C)noc4C)c3c2)sc1C(=O)O [Cpd 59, 2-[3-(3,5-dimethylisoxazol-4-yl)pyrazolo[1,5-a]pyridin-5-yl]-4-(2-methoxyethoxy) thiazole-5-carboxylic acid] | 8.00 to 11.00 | –
16 | CCOCCOc1nc(-c2ccn3ncc(-c4c(C)noc4C)c3c2)sc1C(=O)O [Cpd 60, 2-[3-(3,5-dimethylisoxazol-4-yl)pyrazolo[1,5-a]pyridin-5-yl]-4-(2-ethoxyethoxy) thiazole-5-carboxylic acid] | 8.00 to 11.00 | –
17 | Cc1noc(C)c1-c1cnn2ccc(-c3nc(OC(F)F)c(C(=O)O)s3)cc12 [Cpd 61, 4-(difluoromethoxy)-2-[3-(3,5-dimethylisoxazol-4-yl)pyrazolo[1,5-a]pyridin-5-yl]thiazole-5-carboxylic acid] | 8.00 to 11.00 | –
18 | COc1nn(-c2ccn3ncc(-c4c(C)noc4C)c3c2)cc1C(=O)O [Cpd 63, 1-[3-(3,5-dimethylisoxazol-4-yl)pyrazolo[1,5-a]pyridin-5-yl]-3-methoxy-pyrazole-4-carboxylic acid] | 7.00 to 8.00 | –
19 | Cc1nn(C)c(C)c1-c1cnn2ccc(-n3cc(C(=O)O)cn3)cc12 [Cpd 73, 1-[3-(1,3,5-trimethylpyrazol-4-yl)pyrazolo[1,5-a]pyridin-5-yl]pyrazole-4-carboxylic acid] | 8.00 to 11.00 | –
20 | CCn1nc(C)c(-c2cnn3ccc(-n4cc(C(=O)O)c(OC)n4)cc23)c1C [Cpd 75, 1-[3-(1-ethyl-3,5-dimethyl-pyrazol-4-yl)pyrazolo[1,5-a]pyridin-5-yl]-3-methoxy-pyrazole-4-carboxylic acid] | 8.00 to 11.00 | –
21 | Cc1nn(C(C)C)c(C)c1-c1cnn2ccc(-n3cc(C(=O)O)c(C(F)(F)F)n3)cc12 [Cpd 80, 1-[3-(1-isopropyl-3,5-dimethyl-pyrazol-4-yl)pyrazolo[1,5-a]pyridin-5-yl]-3-(trifluoromethyl)pyrazole-4-carboxylic acid] | 7.00 to 8.00 | –
22 | Cc1nn(CC(F)(F)F)c(C)c1-c1cnn2ccc(-n3cc(C(=O)O)c(C(F)(F)F)n3)cc12 [Cpd 81, 1-[3-[3,5-dimethyl-1-(2,2,2-trifluoroethyl)pyrazol-4-yl]pyrazolo[1,5-a]pyridin-5-yl]-3-(trifluoromethyl)pyrazole-4-carboxylic acid] | 8.00 to 11.00 | –
23 | COc1nn(-c2ccn3ncc(-c4c(C)nn(C(F)F)c4C)c3c2)cc1C(N)=O [Cpd 83, 1-[3-[1-(difluoromethyl)-3,5-dimethyl-pyrazol-4-yl]pyrazolo[1,5-a]pyridin-5-yl]-3-methoxy-pyrazole-4-carboxamide] | 8.00 to 11.00 | –
24 | CCOC(=O)c1sc(-c2ccn3ncc(-c4c(C)nn(C)c4C)c3c2)nc1OC [Cpd 87, ethyl 4-methoxy-2-[3-(1,3,5-trimethylpyrazol-4-yl)pyrazolo[1,5-a]pyridin-5-yl]thiazole-5-carboxylate] | 6.30 to 7.00 | –
25 | CCOC(=O)c1sc(-c2ccn3ncc(-c4c(C)nn(C)c4C)c3c2)nc1OCC [Cpd 88, ethyl 4-ethoxy-2-[3-(1,3,5-trimethylpyrazol-4-yl)pyrazolo[1,5-a]pyridin-5-yl]thiazole-5-carboxylate] | 6.30 to 7.00 | –
26 | CN(C)C(=N)N=C(N)N [metformin, reference compound] | – | Bodyweight change (% change from baseline) [1, 2]: 1.0%; HbA1c change (% change from baseline) [1, 2]: −2.8%; Bodyweight change (% change from baseline) [1, 3]: −0.7%; HbA1c change (% change from baseline) [1, 3]: −12.3%; Bodyweight change (% change from baseline) [1, 4]: −1.3%; HbA1c change (% change from baseline) [1, 4]: −17.2%; Bodyweight change (% change from baseline) [1, 5]: −5.2%; HbA1c change (% change from baseline) [1, 5]: −18.9%; Bodyweight change (% change from baseline) [1, 6]: −6.5%; HbA1c change (% change from baseline) [1, 6]: −24.1%; Bodyweight change (% change from baseline) [1, 7]: −7.3%; HbA1c change (% change from baseline) [1, 7]: −23.5%; Bodyweight change (% change from baseline) [1, 8]: −6.3%; HbA1c change (% change from baseline) [1, 8]: −30.1%; Bodyweight change (% change from baseline) [1, 9]: −6.1%; HbA1c change (% change from baseline) [1, 9]: −28.6%

Source: patent publication US20220144823A1, “PYRAZOLOPYRIDINE DERIVATIVES AS INHIBITORS OF PASK” (Galapagos NV, priority 2019, published 2022)
